The values below come from the supplement of paper PMC11061612.

Test in all cases: combination Emax (second highest fraction inhibited in the dose matrix, 72 h); higher = more inhibition; extreme values may be limits of the assay
One test relates to 8-MG-BA (Glioblastoma). The method, boiled down:
(§1)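 Cell lines grown in DMEM/F12 or RPMI with 10% FBS were plated in 1536-well plates and held 24 hours at 37°C, 5% CO2 before 72 hours of exposure to two-drug dose matrices, with DMSO typically at 0.2%. CellTiter-Glo 2.0 luminescence gave viability, which was converted to inhibition. Vehicle wells were set to 0 and blank wells to 1. Combination Emax is the second-highest inhibition in the matrix, and Bliss excess is the observed combination effect minus the expected EA + EB − EA·EB, where EA and EB are the single-agent effects.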

The next test deals with A498 (Kidney Carcinoma). An outline of the steps: as §1
Test [1] concerns A549 (Lung Adenocarcinoma). The method, boiled down:
as §1

In test [2] the test system is BICR22 (Oral Cavity Carcinoma). The method, boiled down:
as §1

In test [3] the test system is CAL-29 (Bladder Carcinoma). An outline of the steps:
as §1

The test system of test [4] is CAPAN-2 (Pancreatic Carcinoma). An outline of the steps: as §1
The subject of test [5] is CCK-81 (Colorectal Carcinoma). An outline of the steps:
as §1

Test [6] concerns COR-L311 (Small Cell Lung Carcinoma). An outline of the steps:
as §1

For a further test, the system named is GI-ME-N (Neuroblastoma). An outline of the steps:
as §1

The next test deals with Hs-445 (Non-Cancerous). The method, boiled down:
as §1

Another test has as its system IGR-37 (Melanoma). The method, boiled down:
as §1

Test [7] relates to JSC-1 (B-Cell Non-Hodgkin's Lymphoma). An outline of the steps: as §1
Test [8] concerns KARPAS-422 (B-Cell Non-Hodgkin's Lymphoma). The method, boiled down:
as §1

Another test deals with LN-405 (Glioblastoma). The method, boiled down: as §1
The subject of test [9] is MDST8 (Colorectal Carcinoma). The method, boiled down: as §1
The subject of test [10] is NCI-H1581 (Non-Small Cell Lung Carcinoma). An outline of the steps: as §1
The next test relates to PA-1 (Ovarian Carcinoma). The method, boiled down:
as §1

Test [11] deals with PANC-10-05 (Pancreatic Carcinoma). An outline of the steps:
as §1

The subject of test [12] is TT2609-C02 (Thyroid Gland Carcinoma). The method, boiled down: as §1
The test system of a further test is U-2-OS (Osteosarcoma). The method, boiled down:
as §1

Turning to `CN(C)CCCOc1ccc(-c2ccc3ncc4c(c3c2)n(C2CCOCC2)c(=O)n4C)cn1` [AZD0156] + C=CCn1c(=O)c2cnc(Nc3ccc(N4CCN(C)CC4)cc3)nc2n1-c1cccc(C(C)(C)O)n1 [AZD1775] (first compound max 1 µM, partner max 1 µM), the “combination Emax” value in the test with 8-MG-BA (Glioblastoma) turned out to be 0.74; with A498 (Kidney Carcinoma) it was 0.544; in [1], 0.317; in test [2] it was 0.516; in test [3] it was 0.642; in [4] it was 0.39. Besides, the “combination Emax” value in [5] was 0.903; in test [6], 0.56; in the test on GI-ME-N (Neuroblastoma) it was 0.321; with Hs-445 (Non-Cancerous), 0.926; in the test with IGR-37 (Melanoma), 0.706; in test [7], 0.868. Further, the “combination Emax” value in [8] is 0.607; in the test on LN-405 (Glioblastoma), 0.134; in test [9], 0.416; in test [10], 0.331; in the test with PA-1 (Ovarian Carcinoma), 0.789; in [11] it was 0.361. Moreover, the figures for the “combination Emax” value (in test [12]; in the test with U-2-OS (Osteosarcoma)) were 0.334 and 0.734, respectively.
Take `CN(C)CCCOc1ccc(-c2ccc3ncc4c(c3c2)n(C2CCOCC2)c(=O)n4C)cn1` [AZD0156] + CCN(CCO)CCCOc1ccc2c(Nc3cc(CC(=O)Nc4cccc(F)c4)[nH]n3)ncnc2c1 [AZD2811] (first compound max 1 µM, 7x7, partner max 1 µM): the “combination Emax” value in the test with 8-MG-BA (Glioblastoma) was 0.215; with A498 (Kidney Carcinoma), 0.172; in test [1] it was 0.595; in [2], 0.375; in [3] it was 0.284; in [4] it was 0.122. Moreover, the “combination Emax” value worked out at 0.159 in test [5]; 0.815 in [6]; 0.0704 in the test with GI-ME-N (Neuroblastoma); 0.325 in the test with Hs-445 (Non-Cancerous); 0.0663 in the test on IGR-37 (Melanoma); 0.19 in test [7]. Further, the “combination Emax” value in [8] worked out at 0.641; in the test with LN-405 (Glioblastoma) it was 0.0969; in test [9] it was 0.281; in test [10], 0.271; with PA-1 (Ovarian Carcinoma), 0.407; in test [11], 0.218. The “combination Emax” value in test [12] worked out at 0.258; in the test on U-2-OS (Osteosarcoma) it was 0.152.
Regarding `CN(C)CCCOc1ccc(-c2ccc3ncc4c(c3c2)n(C2CCOCC2)c(=O)n4C)cn1` [AZD0156] + C[C@@H]1COCCN1C2=NC(=NC(=C2)C3(CC3)[S@](=N)(=O)C)C4=C5C=CNC5=NC=C4 [AZD6738] (first compound max 1 µM, 7x7, partner max 10 µM), the “combination Emax” value in the test with 8-MG-BA (Glioblastoma) was 0.834; in the test with A498 (Kidney Carcinoma), 0.703; in [1], 0.789; in [2], 0.724; in test [3], 0.772; in test [4], 0.395. The “combination Emax” value in [5] is 0.912; in test [6], 0.408; with GI-ME-N (Neuroblastoma), 0.697; with Hs-445 (Non-Cancerous), 0.868; in the test on IGR-37 (Melanoma), 0.781; in test [7], 0.916. For the same molecule, the “combination Emax” value in test [8] is 0.653; in the test with LN-405 (Glioblastoma) it was 0.376; in test [9] it was 0.919; in test [10], 0.418; in the test on PA-1 (Ovarian Carcinoma), 0.85; in test [11], 0.41. The results for the “combination Emax” value (in [12]; in the test on U-2-OS (Osteosarcoma)) were 0.144 and 0.856, respectively.
For the molecule `C=CCn1c(=O)c2cnc(Nc3ccc(N4CCN(C)CC4)cc3)nc2n1-c1cccc(C(C)(C)O)n1` [AZD1775] + C1CN(CCC1(C(=O)N[C@@H](CCO)C2=CC=C(C=C2)Cl)N)C3=NC=NC4=C3C=CN4 [Capivasertib] (first compound max 3 µM, partner max 3 µM), the “combination Emax” value was determined as 0.975 in the test with 8-MG-BA (Glioblastoma); 0.671 with A498 (Kidney Carcinoma); 0.664 in test [1]; 0.594 in test [2]; 0.839 in [3]; 0.513 in [4]. The “combination Emax” value in test [5] amounted to 0.85; in the test on GI-ME-N (Neuroblastoma) it was 0.451; in the test with Hs-445 (Non-Cancerous), 0.855; with IGR-37 (Melanoma), 0.813; in [7], 0.911; in test [8], 0.856. Moreover, the “combination Emax” value in the test on LN-405 (Glioblastoma) was determined as 0.49; in test [9] it was 0.704; in test [10] it was 0.857; in the test on PA-1 (Ovarian Carcinoma), 0.866; in [11], 0.594; in test [12], 0.466. Moreover, in the test on U-2-OS (Osteosarcoma), the “combination Emax” value stood at 0.665.
As to `C=CCn1c(=O)c2cnc(Nc3ccc(N4CCN(C)CC4)cc3)nc2n1-c1cccc(C(C)(C)O)n1` [AZD1775] + C[C@@H]1COCCN1C2=NC(=NC(=C2)C3(CC3)[S@](=N)(=O)C)C4=C5C=CNC5=NC=C4 [AZD6738] (first compound max 1 µM, partner max 10 µM), the “combination Emax” value with A498 (Kidney Carcinoma) was found to be 0.682; in test [1], 0.829; in test [2], 0.799; in test [3] it was 0.794; in test [4] it was 0.486; in test [5] it was 0.944. For the same molecule, the “combination Emax” value in test [6] amounted to 0.801; in the test on GI-ME-N (Neuroblastoma), 0.548; with Hs-445 (Non-Cancerous) it was 0.914; in the test on IGR-37 (Melanoma) it was 0.787; in test [7] it was 0.905; in test [8], 0.786. The “combination Emax” value stood at 0.464 with LN-405 (Glioblastoma); 0.816 in test [9]; 0.771 in test [10]; 0.883 in the test with PA-1 (Ovarian Carcinoma); 0.513 in [11]; 0.393 in test [12]. The “combination Emax” value with U-2-OS (Osteosarcoma) was determined as 0.852.
In the case of `CN(CCO)CC[C@H](CSc1ccccc1)Nc1ccc(S(=O)(=O)NC(=O)c2ccc(N3CCC([C@@H](O)c4ccccc4-c4ccc(Cl)cc4)CC3)cc2)cc1S(=O)(=O)C(F)(F)F` [AZD4320] + CN(C)CCCOc1ccc(-c2ccc3ncc4c(c3c2)n(C2CCOCC2)c(=O)n4C)cn1 [AZD0156] (first compound max 1 µM, 7x7, partner max 1 µM), the “combination Emax” value came out at 0.0798 in the test with 8-MG-BA (Glioblastoma); 0.254 with A498 (Kidney Carcinoma); 0.175 in test [1]; 0.546 in [2]; 0.104 in test [3]; 0.634 in test [4]. Moreover, the “combination Emax” value came to 1 in [6]; 0.156 in the test on GI-ME-N (Neuroblastoma); 0.497 with Hs-445 (Non-Cancerous); 0.116 in the test with IGR-37 (Melanoma); 0.116 in test [7]; 0.957 in test [8]. The “combination Emax” value is 0.275 in the test with LN-405 (Glioblastoma); 0.772 in test [9]; 0.19 in test [10]; 0.497 with PA-1 (Ovarian Carcinoma); 0.373 in test [11]; 0.148 in test [12]. The “combination Emax” value in the test on U-2-OS (Osteosarcoma) came to 0.259.
